# Laboratory results taken from patent US8859614B2 (University of Nebraska—Lincoln, priority 2008, dated 2014).
# Values joined by “and” are separate entries in the source; they are usually repeats but may differ in a detail not shown here. Equal entries are not always repeated. “Also recorded” adds a separate entry of the source.
# Assays:
# [1] = system: murine breast cancer cell line derived from Kras* mice; test: MTT cell growth assay on a Kras* breast cancer cell line; assay type: cell-based, mouse; settings: for Inhibition of growth of the Kras* breast cancer cell line (in words) / MTT colorimetric reading reflecting cell density, Day 2, Average / MTT colorimetric reading reflecting cell density, Day 2, individual duplicate wells: 500 nM, 48 h; for MTT colorimetric reading reflecting cell density, Day 2, Average: average of duplicates, Day 0 0.3675, no drug 0.792; for MTT colorimetric reading reflecting cell density, Day 2, individual duplicate wells: wells 1 and 2, Day 0 0.373/0.362, no drug 0.959/0.625
# Procedure: A murine breast cancer cell line derived from Kras* mice was used to assay the effect of IGF1RK inhibitors. Approximately 30,000 cells/well were plated in a 24-well plate which corresponds to 20% confluence. The next day (Day 0 for the experiment) two of wells were treated with MTT (Thiazol Blue Tetrazolium), a substrate used in a colorimetric metabolic assay that reflects cell density. […] Forty-eight hours later the duplicate wells were assayed.
# [2] = system: Kras*-induced mammary carcinomas; test: Drug treatment of Kras*-induced mouse mammary carcinomas; assay type: in vivo; settings: for Tumor volume per gland (Table 10) / Tumor volume per gland: Mean ± S.E.M.; for Tumor volume per gland (Table 10): pooled vehicle controls 243.3 ± 68.9 (9 mice); for Potency relative to PPP against Kras*-induced mammary carcinomas: from % tumor volume versus control; for Tumor volume per gland, % of pooled vehicle control (Table 10): pooled vehicle control = 100; for Macroscopic and histopathological effect on tumors and tumor components (in words): 3 weeks of treatment; for Tumor volume per gland / Tumor volume per gland, % of control (vehicle): i.p. once daily for 3 weeks, PPP 30 mg/kg, Erlotinib 50 mg/kg; for Tumor volume per gland: vehicle 217.8 ± 65.6; for Tumor volume per gland, % of control (vehicle): vehicle = 100
# Procedure: (§1) Details of the preclinical trial using picropodophyllin synthesized as described (Buchardt O, et al. J. Pharm. Sci. (1986), 75:1076-1080) and Erlotinib (purchased from Hwasun Biotechnology Co) are described in Results. The drugs were dissolved in DMSO and cremophor (9:1) and injected intraperitoneally. To calculate tumor volumes, the formula for a prolate spheroid (π/6×a×b2 or ˜a×b2/2, where a and b are the major and minor axis, respectively) was used. The lengths of axes were determined microscopically from sections of tumor nodules using a computer assisted morphometry system (SpotAdvanced VS. 4.0.1, Nikon Eclipse E400). For xenograft experiments, 5×10^6 MDA-MB-231 cells were injected bilaterally into the fat pads of mammary glands 3 and 4 of female SCID/NOD mice. […] For in vitro experiments, MDA-MB-231 cells were grown in DMEM supplemented with 10% fetal bovine serum. […] Cell viability (duplicates) was measured on days 2, 4 and 6 by using the Thiazolyl Blue Tetrazolium Bromide (MTT) colorimetric assay (Mosmann T, J. Immunol. Methods (1983), 65:55-63).
# First, the tumors developing in each gland tended to be multifocal and uneven, and progressively coalesced into larger masses precluding reliable evaluation.
# After 21 days of treatment, the mice are sacrificed, weighed, and the initial tumors measured individually. In addition, tumors which were not palpable at the time of initial palpation, but had grown during the therapy period, are also isolated.
# The efficacy of compounds 18 “(NB3)” and 21 “(NB6)” to ameliorate Kras*-induced mouse mammary carcinomas was tested. While testing NB3 and NB6 (4 mice each), 2 controls were added (2 tumor-bearing mice treated with vehicle).
# [3] = system: Kras*-induced mammary carcinomas; test: as above; assay type: in vivo
# insulin receptor = insulin receptor (Homo sapiens, UniProt P06213); settings: Girnita 2004; Vasilcanu 2008; cited from earlier work
# MDA-MB-231 cells [4] = test: MDA-MB-231 in vitro cell viability (MTT assay); assay type: cell-based, human; settings: PPP 500 nM; MTT on days 2, 4 and 6
# Description: FIG. 8A-C. In vitro inhibition of Igf1r action. Representative experiments of pharmacological inhibition of IGF1R in MDA-MB-231 cells by picropodophyllin (A) or by IGF1R knockdown using a dominant-negative construct (B) or siRNA (C). The absorbance (mean values±S.E.M.) reflects cell numbers estimated from duplicate samples using the MTT assay (see Experimental Procedures). […] (B) Plasmid 486Stop (encoding dominant-negative IGF1R) or a control plasmid (pcDNA3) were introduced in MDA-MB-231 cells by nucleofection following the manufacturer's protocol (1.5 μg of plasmid DNA per […]; Amaxa Biosystems). The same method was used to introduce into these cells a 19-bp RNA duplex (R4) targeting IGR1R mRNA or a scrambled control duplex (Scr4; see SI Materials and Methods, for details). […]
# Details of the preclinical trial using picropodophyllin synthesized as described (Buchardt O, et al. J. Pharm. Sci. (1986), 75:1076-1080) and Erlotinib (purchased from Hwasun Biotechnology Co) are described in Results. […] The lengths of axes were determined microscopically from sections of tumor nodules using a computer assisted morphometry system (SpotAdvanced VS. 4.0.1, Nikon Eclipse E400). […] Cell viability (duplicates) was measured on days 2, 4 and 6 by using the Thiazolyl Blue Tetrazolium Bromide (MTT) colorimetric assay (Mosmann T, J. Immunol. Methods (1983), 65:55-63).
# MDA-MB-231 cells [5] = test: MDA-MB-231 orthotopic xenografts in SCID/NOD mice; assay type: in vivo, human
# Procedure: as §1
# Nevertheless, in conjunction with the mouse data, these observations provide strong justification for further evaluations of the drug against human breast cancer.
# [6] = target: T1, human Insulin-like Growth Factor I Receptor Kinase (IGF1 RK) domain (Homo sapiens, UniProt P08069); settings: background statement; cited from earlier work
# T1 construct: human Insulin-like Growth Factor I Receptor Kinase (IGF1 RK) domain
# T1 sequence (P08069 999-1274 limits assumed): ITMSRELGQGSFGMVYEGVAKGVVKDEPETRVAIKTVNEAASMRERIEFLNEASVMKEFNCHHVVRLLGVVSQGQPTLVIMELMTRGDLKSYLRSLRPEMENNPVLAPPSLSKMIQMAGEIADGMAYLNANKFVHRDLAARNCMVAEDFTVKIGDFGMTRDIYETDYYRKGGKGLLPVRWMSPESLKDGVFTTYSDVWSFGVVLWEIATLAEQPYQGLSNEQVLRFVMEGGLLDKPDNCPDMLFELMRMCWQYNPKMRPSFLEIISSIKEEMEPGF
# Chain of insulin receptor (P06213 28-1382, species assumed): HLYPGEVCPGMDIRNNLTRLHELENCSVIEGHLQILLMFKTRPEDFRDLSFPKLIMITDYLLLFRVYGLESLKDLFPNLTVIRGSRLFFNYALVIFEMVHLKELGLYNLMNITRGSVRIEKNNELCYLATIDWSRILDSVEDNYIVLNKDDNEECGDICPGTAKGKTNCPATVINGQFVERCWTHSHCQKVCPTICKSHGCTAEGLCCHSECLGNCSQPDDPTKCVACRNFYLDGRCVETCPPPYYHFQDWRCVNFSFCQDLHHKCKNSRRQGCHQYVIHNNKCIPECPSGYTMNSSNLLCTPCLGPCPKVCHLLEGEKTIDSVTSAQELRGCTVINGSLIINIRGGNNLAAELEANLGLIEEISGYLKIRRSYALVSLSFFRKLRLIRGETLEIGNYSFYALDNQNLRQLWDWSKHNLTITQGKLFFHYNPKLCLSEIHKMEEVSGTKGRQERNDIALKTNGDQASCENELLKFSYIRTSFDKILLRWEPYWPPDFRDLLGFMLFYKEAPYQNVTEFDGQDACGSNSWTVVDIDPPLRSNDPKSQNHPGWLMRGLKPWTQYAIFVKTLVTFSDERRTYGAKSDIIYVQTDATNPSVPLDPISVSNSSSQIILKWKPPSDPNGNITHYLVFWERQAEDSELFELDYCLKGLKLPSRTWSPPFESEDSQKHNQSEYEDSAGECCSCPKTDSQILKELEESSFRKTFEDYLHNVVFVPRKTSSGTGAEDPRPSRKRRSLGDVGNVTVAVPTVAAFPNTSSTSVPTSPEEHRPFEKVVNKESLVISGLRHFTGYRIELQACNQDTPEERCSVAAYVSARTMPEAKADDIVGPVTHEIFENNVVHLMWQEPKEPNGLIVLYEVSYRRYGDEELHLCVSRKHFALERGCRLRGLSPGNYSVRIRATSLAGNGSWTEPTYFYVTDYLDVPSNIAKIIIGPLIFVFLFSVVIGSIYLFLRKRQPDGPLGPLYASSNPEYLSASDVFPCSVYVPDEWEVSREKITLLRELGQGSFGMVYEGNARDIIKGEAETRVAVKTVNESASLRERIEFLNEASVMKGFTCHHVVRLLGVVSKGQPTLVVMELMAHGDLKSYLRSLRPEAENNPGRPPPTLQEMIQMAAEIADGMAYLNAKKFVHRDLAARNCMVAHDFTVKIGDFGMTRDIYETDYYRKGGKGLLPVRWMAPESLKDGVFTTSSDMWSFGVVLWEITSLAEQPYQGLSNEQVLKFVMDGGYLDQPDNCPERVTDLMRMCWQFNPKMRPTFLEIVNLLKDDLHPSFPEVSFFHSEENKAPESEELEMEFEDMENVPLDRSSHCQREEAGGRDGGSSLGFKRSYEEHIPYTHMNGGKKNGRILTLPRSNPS
SMILES,Inhibition of growth of the Kras* breast cancer cell line (in words) [1],"MTT colorimetric reading reflecting cell density, Day 2, Average [1]","MTT colorimetric reading reflecting cell density, Day 2, individual duplicate wells [1]",Tumor volume per gland (Table 10) [2],Potency relative to PPP against Kras*-induced mammary carcinomas [2],"Tumor volume per gland, % of pooled vehicle control (Table 10) [2]",Macroscopic and histopathological effect on tumors and tumor components (in words) [2],Tumor volume per gland [2],"Tumor volume per gland, % of control (vehicle) [2]",also measured
"COc1cccc([C@@H]2c3cc4c(cc3[C@H](O)C3COC(=O)[C@H]32)OCO4)c1 (stereo partly drawn) [Compound 18, 4′,5′-Didemethoxy-(−)-picropodophyllin]",as effective as PPP,0.5245,0.483 and 0.566,20.9 ± 10.8 mm^3,same potency as PPP,6.5%,–,–,–,"IC50 ([1]; Mus musculus, read-out: IC50 for growth inhibition of Kras* breast cancer cell line): ~400 nM"
"COc1cc([C@@H]2c3cc4c(cc3[C@H](O)C3COC(=O)[C@H]32)OCO4)cc(OC)c1OC (single isomer, unassigned; (-)) [PPP, (−)-picropodophyllin]",–,0.4775,0.478 and 0.477,–,–,–,marked reduction or even absence of the pale and squamous cell components; also recorded: dramatically smaller; also recorded: diminishes the size of pale cell tumors,16.0 ± 9.1 mm^3,~7% and 7.3%,"Increase in apoptosis in the pale component (activated caspase 3 immunohistochemistry) versus vehicle ([3]; 3 days of administration): ~9 fold; Proliferation (proliferation indices) in tumors ([3]; 3 days of treatment): at control levels; Effect on the homologous insulin receptor (in words) (insulin receptor): not affected; In vitro viability of MDA-MB-231 cells (in words) (MDA-MB-231 cells [4]): drastically reduced; Tumor volume per gland, xenografts (MDA-MB-231 cells [5]; Mean ± S.E.M., SCID/NOD mice, PPP i.p. for 3 weeks, vehicle 304 ± 40.8): 215 ± 18.6 mm^3; Xenograft tumor growth versus vehicle-treated controls (in words) (MDA-MB-231 cells [5]; NOD/SCID mice, orthotopically injected MDA-MB-231 cells): attenuated; Tumor volume per gland, xenografts, % of vehicle (MDA-MB-231 cells [5]; SCID/NOD mice, PPP i.p. for 3 weeks, vehicle = 100): 70.7%; Effect on IGF1 RK kinase activity (in words) [6]: inhibits its kinase activity; Total tumor volume per mouse ([2]; after 21 days of daily treatment, vehicle 653±219, p=0.05): 54±28 mm^3; % tumor volume in comparison with the control, normalized to the new control data ([2]; previous PPP value re-normalized to pooled vehicle control): 6.5%"
C#Cc1cccc(Nc2ncnc3cc(OCCOC)c(OCCOC)cc23)c1 [Erlotinib],–,–,–,–,–,–,reduced predominantly the pale cell component,66.9 ± 29.3 mm^3,30.7%,–
"COc1ccc([C@@H]2c3cc4c(cc3[C@H](O)C3COC(=O)[C@H]32)OCO4)cc1 (stereo partly drawn) [Compound 19, 3′,5′-Didemethoxy-(−)-picropodophyllin]",essentially no activity,–,–,–,–,–,–,–,–,–
"COc1cc(OC)cc([C@@H]2c3cc4c(cc3[C@H](O)C3COC(=O)[C@H]32)OCO4)c1 (stereo partly drawn) [Compound 21, 4′-Demethoxy-(−)-picropodophyllin]",–,0.4845,0.505 and 0.464,2.1 ± 1.0 mm^3,7 times,0.9%,–,–,–,–
